Several values for one entry are separate records, joined by “and”; a condition that tells them apart may be missing. Identical values can stand only once.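 Step 1: Grow cells in 96-well plates. Step 2: Expose to compound for 48 hours at 5 concentrations. Step 3: Interpolate endpoints linearly; if unreached, use highest concentration. GI50 = concentration required for 50% inhibition of growth.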 Activity calls are given as the source filed them. Rule as the data show it: active = GI50 up to about 1.1 µM and inactive = higher.
Columns and labels:
Test in all cases: NCI-60 cell line screen, 48 h
[1] = test system: 786-0
[2] = test system: BT-549
[3] = test system: CCRF-CEM
[4] = test system: HOP-62
[5] = test system: HOP-92
[6] = test system: IGROV-1
[7] = test system: K562
[8] = test system: KM12
[9] = test system: M14
[10] = test system: Malme-3M
[11] = test system: NCI-H226
[12] = test system: NCI-H460
[13] = test system: NCI/ADR-RES
[14] = test system: RXF 393
[15] = test system: SK-MEL-5
[16] = test system: SK-OV-3
[17] = test system: SN12C
[18] = test system: SNB-19
[19] = test system: U-251
[20] = test system: SNB-75

Row | SMILES | GI50 [1] | GI50 [2] | GI50 [3] | GI50 [4] | GI50 [5] | GI50 [6] | GI50 [7] | GI50 [8] | GI50 [9] | GI50 [10] | GI50 [11] | GI50 [12] | GI50 [13] | GI50 [14] | GI50 [15] | GI50 [16] | GI50 [17] | GI50 [18] | GI50 [19] | GI50 [20]
1 | COc1ccc(N(CC(=O)O)N=O)cc1 | > 100 µM (inactive) | > 100 µM (inactive) | > 100 µM (inactive) | > 100 µM (inactive) | > 100 µM (inactive) | > 100 µM (inactive) | > 100 µM (inactive) | > 100 µM (inactive) | > 100 µM (inactive) | > 100 µM (inactive) | > 100 µM (inactive) | > 100 µM (inactive) | > 100 µM (inactive) | > 100 µM (inactive) | > 100 µM (inactive) | > 100 µM (inactive) | > 100 µM (inactive) | > 100 µM (inactive) | > 100 µM (inactive) | –
2 | Clc1ccccc1NN(Cc1ccccn1)c1ccccc1Cl | 16.9 µM (inactive) | 25.1 µM (inactive) | – | 17.9 µM (inactive) | 16.1 µM (inactive) | 20.2 µM (inactive) | 17.3 µM (inactive) | 16.9 µM (inactive) | 18.5 µM (inactive) | 19 µM (inactive) | 16.2 µM (inactive) | – | 16.7 µM (inactive) | 14.9 µM (inactive) | 14.5 µM (inactive) | 49.8 µM (inactive) | 18.8 µM (inactive) | 27.9 µM (inactive) | 15.8 µM (inactive) | 20.1 µM (inactive)
3 | CCc1cn(C2CC(CO)C(CO)S2)c(=O)[nH]c1=O (centres undefined) | > 100 µM (inactive) | > 100 µM (inactive) | > 100 µM (inactive) | > 100 µM (inactive) | > 100 µM (inactive) | > 100 µM (inactive) | > 100 µM (inactive) | > 100 µM (inactive) | > 100 µM (inactive) | > 100 µM (inactive) | > 100 µM (inactive) | – | > 100 µM (inactive) | > 100 µM (inactive) | > 100 µM (inactive) | > 100 µM (inactive) | > 100 µM (inactive) | > 100 µM (inactive) | > 100 µM (inactive) | > 100 µM (inactive)
4 | CC(C)(C)N1CSC(=S)N(Cc2ccco2)C1 | 1.63 µM (inactive) | 2.79 µM (inactive) | 1.08 µM (active) | 4.8 µM (inactive) | 1.55 µM (inactive) | 2.55 µM (inactive) | 1.85 µM (inactive) | 2.7 µM (inactive) | 2.46 µM (inactive) | 4.16 µM (inactive) | 20.3 µM (inactive) | 5.89 µM (inactive) | 4.11 µM (inactive) | 5.87 µM (inactive) | 3.61 µM (inactive) | 5.75 µM (inactive) | 4.35 µM (inactive) | 3.91 µM (inactive) | 3.72 µM (inactive) | 12.8 µM (inactive)
5 | COC1(OC)C[C@H](C)[C@@]23O[C@]24c2cc(O)c5c(c2N[C@H]3C#C/C=C\C#C[C@]14O)C(=O)c1ccccc1C5=O | 0.005 µM (active) | 0.00519 µM (active) | < 0.001 µM (active) | 0.005 µM (active) | 0.00107 µM (active) | 0.0148 µM (active) | 0.005 µM (active) | – | 0.005 µM (active) | 0.005 µM (active) | 0.005 µM (active) | < 0.001 µM (active) | 0.005 µM (active) | 0.005 µM (active) | 0.005 µM (active) | < 0.001 µM (active) | 0.00136 µM (active) | 0.005 µM (active) | 0.005 µM (active) | 0.005 µM (active)
6 | COc1ccc(/C=C2/N/C(=N\N=C/C(O)C(O)C(O)CO)NC2=O)cc1 (centres undefined) | > 100 µM (inactive) and 62.4 µM (inactive) | 55.8 µM (inactive) and 28 µM (inactive) | 63 µM (inactive) and 53 µM (inactive) | – | 48.3 µM (inactive) and 42.6 µM (inactive) | > 100 µM (inactive) and 76.7 µM (inactive) | – | – | 51.8 µM (inactive) | > 100 µM (inactive) | 87.7 µM (inactive) | > 100 µM (inactive) | > 100 µM (inactive) | > 100 µM (inactive) | – | 73.6 µM (inactive) | > 100 µM (inactive) | – | > 100 µM (inactive) and 84.7 µM (inactive) | –
7 | COc1ccc(C(=O)O[C@@H]2CCN3CC[C@H](C)[C@H]23)cc1 | > 100 µM (inactive) | > 100 µM (inactive) | – | > 100 µM (inactive) | > 100 µM (inactive) | > 100 µM (inactive) | – | > 100 µM (inactive) | > 100 µM (inactive) | – | > 100 µM (inactive) | > 100 µM (inactive) | > 100 µM (inactive) | 45.9 µM (inactive) | > 100 µM (inactive) | > 100 µM (inactive) | > 100 µM (inactive) | > 100 µM (inactive) | > 100 µM (inactive) | > 100 µM (inactive)
8 | C[C@]12CCC3C4=C(CCC3C1CCC2=O)C(=O)[C@H]1O[C@H]1C4=O (some centres undefined) | 1.83 µM (inactive) | 1.98 µM (inactive) | 1.12 µM (inactive) | 3.27 µM (inactive) | 7.67 µM (inactive) | 2.24 µM (inactive) | 1.29 µM (inactive) | 5.43 µM (inactive) | 4.05 µM (inactive) | 21.6 µM (inactive) | 2.18 µM (inactive) | 7.46 µM (inactive) | 4.02 µM (inactive) | 1.6 µM (inactive) | 10 µM (inactive) | 13.9 µM (inactive) | 2.64 µM (inactive) | 15.6 µM (inactive) | 2.75 µM (inactive) | 3.23 µM (inactive)
9 | CC1=CC(=O)N(n2c(Cc3ccccc3)n[nH]c2=O)C1=O | > 100 µM (inactive) | > 100 µM (inactive) | 23.3 µM (inactive) | – | > 100 µM (inactive) | > 100 µM (inactive) | 71.9 µM (inactive) | > 100 µM (inactive) | > 100 µM (inactive) | > 100 µM (inactive) | > 100 µM (inactive) | > 100 µM (inactive) | > 100 µM (inactive) | > 100 µM (inactive) | > 100 µM (inactive) | > 100 µM (inactive) | > 100 µM (inactive) | > 100 µM (inactive) | > 100 µM (inactive) | –
10 | COc1ccc2sc(-n3nc4ccccc4c3Nc3nc4ccc(OC)cc4s3)nc2c1 | 1.64 µM (inactive) | 2.13 µM (inactive) | 96.4 µM (inactive) | 1.79 µM (inactive) | 3.12 µM (inactive) | 2.02 µM (inactive) | 1.59 µM (inactive) | 3.99 µM (inactive) | 7.24 µM (inactive) | 3.8 µM (inactive) | 2.9 µM (inactive) | 2.22 µM (inactive) | 2.26 µM (inactive) | 11 µM (inactive) | 2.26 µM (inactive) | 1.94 µM (inactive) | 3.07 µM (inactive) | 2.33 µM (inactive) | 2.76 µM (inactive) | 3 µM (inactive)
11 | CC(C)CCC[C@@H](C)[C@H]1CC[C@H]2[C@@H]3CC=C4C[C@@H](OC(=O)c5cccc6c(=O)c7ccccc7[nH]c56)CC[C@]4(C)[C@H]3CC[C@]12C | > 75 µM (inactive) | > 75 µM (inactive) | – | 34.9 µM (inactive) | > 75 µM (inactive) | > 75 µM (inactive) | 43.7 µM (inactive) | > 75 µM (inactive) | > 75 µM (inactive) | > 75 µM (inactive) | > 75 µM (inactive) | – | > 75 µM (inactive) | > 75 µM (inactive) | > 75 µM (inactive) | > 75 µM (inactive) | 1.92 µM (inactive) | > 75 µM (inactive) | > 75 µM (inactive) | > 75 µM (inactive)
12 | Cc1ccc(/N=N/C(=N/c2ccccc2)c2ccc(N(CCC#N)CCC#N)cc2)cc1 | 37.8 µM (inactive) | 13.2 µM (inactive) | 35.6 µM (inactive) | 30.1 µM (inactive) | 22 µM (inactive) | 20.3 µM (inactive) | 47.3 µM (inactive) | 24.3 µM (inactive) | 33.4 µM (inactive) | – | 27.7 µM (inactive) | 20.1 µM (inactive) | > 100 µM (inactive) | 22.3 µM (inactive) | 22.9 µM (inactive) | 30.8 µM (inactive) | 31.9 µM (inactive) | 37.5 µM (inactive) | 15.8 µM (inactive) | 31.1 µM (inactive)
13 | Clc1ncnc2c1nc(C#Cc1ccccc1)n2Cc1ccccc1 | 13.7 µM (inactive) | 20.8 µM (inactive) | 3.78 µM (inactive) | 24.7 µM (inactive) | 27.1 µM (inactive) | – | 3.67 µM (inactive) | 23.6 µM (inactive) | 19.1 µM (inactive) | > 100 µM (inactive) | 45.3 µM (inactive) | 82.2 µM (inactive) | 60 µM (inactive) | 16.3 µM (inactive) | 32 µM (inactive) | > 100 µM (inactive) | 18.8 µM (inactive) | 29.9 µM (inactive) | 17.6 µM (inactive) | 25.8 µM (inactive)
14 | Nc1nc(N)c2nc(CNc3ccc(C(=O)NC(CCCCNC(=O)c4ccccc4C(=O)O)C(=O)O)cc3)cnc2n1 (centres undefined) | 0.01 µM (active) | > 100 µM (inactive) | 0.01 µM (active) | 0.01 µM (active) | 0.445 µM (active) | < 0.0113 µM (active) | 0.01 µM (active) | 0.01 µM (active) | 0.01 µM (active) | 3.61 µM (inactive) | > 100 µM (inactive) | 0.01 µM (active) | 0.01 µM (active) | 0.01 µM (active) | < 0.0119 µM (active) | > 100 µM (inactive) | 0.01 µM (active) | < 0.0158 µM (active) | 0.01 µM (active) | –

From ChEMBL document CHEMBL1201862, “PubChem BioAssay data set” (2004)
